Reference: US20230135894A1, “MK2 DEGRADERS AND USES THEREOF” (Kymera Therapeutics, Inc., priority 2021, published 2023)

How the values were obtained:
[1] = target: T1, MK2 (Homo sapiens, UniProt P49137); assay: MK2 degradation in human THP-1 monocytic cells (MSD, 24 h); assay type: cell-based; design: endogenous in cells; key to MK2 MSD THP-1 degradation 24 h GMean External Abs DC50: A (<0.001 μM); B (0.001-0.01 μM); C (0.01-0.1 μM); D (>0.1 μM); —: “-”=not tested or inactive; conditions: for Dmax: THP-1, THP-1 cells; for DC50 / MK2 MSD THP-1 degradation 24 h GMean External Abs DC50: THP-1 cells; for DC50: read-out: MK2 MSD THP-1 degradation 24 h GMean External Abs DC50
T1 sequence (P49137 whole entry): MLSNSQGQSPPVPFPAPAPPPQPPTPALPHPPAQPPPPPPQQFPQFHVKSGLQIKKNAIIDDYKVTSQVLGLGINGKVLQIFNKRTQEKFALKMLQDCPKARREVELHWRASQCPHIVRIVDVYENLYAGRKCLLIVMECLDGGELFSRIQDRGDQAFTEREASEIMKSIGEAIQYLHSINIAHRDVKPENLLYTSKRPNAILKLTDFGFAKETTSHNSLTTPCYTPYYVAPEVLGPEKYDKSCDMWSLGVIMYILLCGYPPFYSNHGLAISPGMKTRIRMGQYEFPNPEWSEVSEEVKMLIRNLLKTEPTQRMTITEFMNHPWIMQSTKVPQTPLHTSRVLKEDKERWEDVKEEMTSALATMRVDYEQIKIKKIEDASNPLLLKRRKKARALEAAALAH
Method: MK2 Degradation in Human THP-1 Monoctyic Cells
(§1) The human monocytic cancer cell line THP-1 (ATCC (TIB-202)) was cultured in 96 well plates (Corning 3894) at a density of 200,000 cells per well in 100 microlitres in complete growth medium of RPMI 1640 (Gibco) pus 10% fetal Bovine Serum (Corning) and Penicillin/Streptomycin (SolarBio) at 37 degrees Celsius and 5% CO2. A serial dilution of each compound (usually 3 to 5 fold serial dilutions up to 10 separate concentration points) was added to individual wells from a 10 millimolar stock solution, at a background concentration of 0.1% DMSO and the cells were shaken at 600 rpm for 5 minutes and then were cultured for 24 hours at 37 degrees Celsius and 5% carbon dioxide. Separately, a custom MSD (MesoScaleDiscovery, L15XA-3) plate for detection of human MK2 was prepared by coating the plate with the commercial AbCam ab247272 reagent in 1×Phosphate Buffered Saline at 40 microlitres per well and incubated at 4 degrees Celsius overnight. The next day, the MSD plate was washed with 150 microlitres of Tween buffered saline, blocked with MSD blocking buffer (3% Blocker A from MSD), and washed again.
(§2) The cell plate was centrifuged at 3,200 g for 5 minutes and the supernatant was discarded and 100 microlitres of RIPA lysis buffer (containing proteinase inhibitors, Boston BioProducts BP-115D) was added and the plate was sealed and shaken on ice for 20 minutes. The plate was centrifuged as before and 70 microlitres of sample lysate was added to the MSD plates and they were shaken at room temperature for 1 hour at 600 rpm. The MSD plate was washed 3 times as before and then the primary MK2 detection antibody (Santa Cruz sc-100393) was added at a final concentration of 1 microgram per ml at 25 microlitres per well and shaken at room temperature for 1 hour at 600 rpm.
(§3) After 3 more washes, the secondary detection antibody (SULFO-Tag anti rabbit antibody R32AB-5) was added at a final concentration of 1 microgram per ml at 25 microlitres per well and shaken at room temperature for 1 hour at 600 rpm. After 3 more washes, the 1×MSD (diluted from 5× concentrate with water) reading buffer was added at 150 microlitres per well and read on the MSD instrument Meso Sector S 600.
(§4) The inhibition/degradation curves and DC50 values were plotted and calculated using XL Fit (version v5.3.1.3) using equation 201 and a 4 parameter logistic model whereby fit=(A+((B−A)/(1+((x/C)D))) where A is the Bottom and B is the Top and C is the IC50 and D is the slope and high C is the signal for the DMSO treated cells and Low C is the signal is the signal for the lysis buffer.

[2] = target: T1, MK2; assay: MK2 degradation in human SW1353 cells (MSD, 24 h); assay type: cell-based; design: endogenous in cells; host or cells: SW-1353 (ATCC HTB-94); key to MK2 MSD SW1353 degradation 24 h GMean External Abs DC50: A (<0.001 μM); B (0.001-0.01 μM); C (0.01-0.1 μM); D (>0.1 μM); —: “-”=not tested or inactive; conditions: for Dmax: read-out: MK2 MSD SW 1353 24 h Dmax %; for DC50: read-out: MK2 MSD SW1353 degradation 24 h GMean External Abs DC50
Method: MK2 Degradation in Human SW1353 Cells
as §1, with “chondrocyte” for “monocytic”, “SW-1353 (ATCC(HTB-94))” for “THP-1 (ATCC (TIB-202))”, “Leibovitz's L-15 Medium” for “RPMI 1640”, “Celsius.” for “Celsius and 5% CO2.”, “Celsius.” for “Celsius and 5% carbon dioxide.”
as §2, §3, §4

SMILES	Dmax [1]	DC50 [1]	Dmax [2]	DC50 [2]	MK2 MSD THP-1 degradation 24 h GMean External Abs DC50 [1]	MK2 MSD SW1353 degradation 24 h GMean External Abs DC50 [2]
C[C@@H]1CNc2c(sc3ccc4nc(-c5cccc(N6CCN(C(=O)COCCOCCOCCOCCc7ccc8c(c7)n(C)c(=O)n8C7CCC(=O)NC7=O)CC6)c5)ccc4c23)C(=O)N1 (stereo partly shown) [Compound I-36]	> 75%	1 to 10 nM	> 75%	1 to 10 nM		
C[C@@H]1CNc2c(sc3ccc4nc(-c5cc(Cl)cc(N6CCN(CC7CCN(c8ccc9c(c8)n(C)c(=O)n9C8CCC(=O)NC8=O)CC7)CC6)c5)ccc4c23)C(=O)N1 (stereo partly shown) [Compound I-216]	> 75%	< 1 nM	> 75%	1 to 10 nM		
O=C1CCC(N2Cc3cc(N4CCN(CC5CCN(c6ccc(-c7cc(-c8cc9c([nH]8)CCNC9=O)ccn7)c(F)c6)CC5)CC4)ccc3C2=O)C(=O)N1 (stereo not shown) [Compound I-295]	50 to 75%	10 to 100 nM	> 75%	10 to 100 nM		
C[C@@H]1CNc2c(sc3ccc4nc(-c5cncc(N6CCN(CC7CCN(c8cccc9c8n(C)c(=O)n9C8CCC(=O)NC8=O)CC7)CC6)c5)ccc4c23)C(=O)N1 (stereo partly shown) [Compound I-160]	> 75%	< 1 nM	> 75%	< 1 nM		
C[C@@H]1CNc2c(sc3ccc4nc(-c5cccc(N6CCN(CCCCCCCCc7ccc8c(c7)n(C)c(=O)n8C7CCC(=O)NC7=O)CC6)c5)ccc4c23)C(=O)N1 (stereo partly shown) [Compound I-176]	50 to 75%	1 to 10 nM	> 75%	1 to 10 nM		
C[C@@H]1CNc2c(sc3ccc4nc(N5CCC(N6CCC7(CCN(c8ccc9c(c8)n(C)c(=O)n9C8CCC(=O)NC8=O)CC7)C6)CC5)ccc4c23)C(=O)N1 (stereo partly shown) [Compound I-410]	> 75%	< 1 nM	> 75%	< 1 nM		
C[C@@H]1CNc2c(sc3ccc4nc(-c5cc(N6CCN(CCCCCCCCc7cccc8c7n(C)c(=O)n8C7CCC(=O)NC7=O)CC6)ccc5F)ccc4c23)C(=O)N1 (stereo partly shown) [Compound I-286]	50 to 75%	10 to 100 nM	> 75%	10 to 100 nM		
COc1cc(-c2ccc3c(ccc4sc5c(c43)NC[C@@H](C)NC5=O)n2)c(F)cc1N1CCN(CC2CCN(c3ccc4c(c3)n(C)c(=O)n4C3CCC(=O)NC3=O)CC2)CC1 (stereo partly shown) [Compound I-180]	> 75%		> 75%			
C[C@@H]1CNc2c(sc3ccc4nc(-c5ccc(N6CCN(CCCc7ccc8c(c7)n(C)c(=O)n8C7CCC(=O)NC7=O)CC6)nc5)ccc4c23)C(=O)N1 (stereo partly shown) [Compound I-287]	> 75%	< 1 nM	> 75%	< 1 nM		
C[C@@H]1Cc2[nH]c(-c3ccnc(-c4ccc(N5CCC(CN6CCC(c7ccc8c(c7)n(C)c(=O)n8C7CCC(=O)NC7=O)CC6)CC5)cc4)c3)cc2C(=O)N1 (stereo partly shown) [Compound I-263]	> 75%	< 1 nM	> 75%	< 1 nM		
C[C@@H]1CNc2c(sc3ccc4nc(-c5ccc(N6CCN(C[C@H]7C[C@@H](c8ccc9c(c8)n(C)c(=O)n9C8CCC(=O)NC8=O)C7)CC6)cc5)ccc4c23)C(=O)N1 (stereo partly shown) [Compound I-221]	> 75%	< 1 nM	> 75%	< 1 nM		
C[C@@H]1CNc2c(sc3ccc4nc(N5CCN(CC6CCN(c7ccc(-c8ccc9c(c8)n(C)c(=O)n9C8CCC(=O)NC8=O)cc7)CC6)CC5)ccc4c23)C(=O)N1 (stereo partly shown) [Compound I-184]	> 75%		> 75%		—	—
C[C@@H]1CNc2c(sc3ccc4nc(-c5ccc(N6CCN(CCCCCCCCc7ccc8c(c7)n(C)c(=O)n8C7CCC(=O)NC7=O)CC6)cc5)ccc4c23)C(=O)N1 (stereo partly shown) [Compound I-175]	> 75%	1 to 10 nM	> 75%	1 to 10 nM		
C[C@@H]1CNc2c(sc3ccc4nc(N5C6CCC5CN(CC5CCN(c7ccc8c(c7)n(C)c(=O)n8C7CCC(=O)NC7=O)CC5)C6)ccc4c23)C(=O)N1 (stereo partly shown) [Compound I-434]	< 50%	> 100 nM	< 50%	> 100 nM		
C[C@@H]1CNc2c(sc3ccc4nc(-c5ccc(N6CCN(CC7CCN(c8ccc9c(c8)CN(C8CCC(=O)NC8=O)C9=O)CC7)CC6)cc5)ccc4c23)C(=O)N1 (stereo partly shown) [Compound I-302]	> 75%	1 to 10 nM	> 75%	1 to 10 nM		
C[C@@H]1CNc2c(sc3ccc4nc(-c5ccc(N6CCN(CCOc7ccc8c(c7)n(C)c(=O)n8C7CCC(=O)NC7=O)CC6)cc5)ccc4c23)C(=O)N1 (stereo partly shown) [Compound I-215]	50 to 75%		> 75%	< 1 nM	—	
C[C@@H]1Cc2oc(-c3ccnc(-c4ccc(N5CCN(CC6CCN(c7cccc8c7n(C)c(=O)n8C7CCC(=O)NC7=O)CC6)CC5)nc4)c3)cc2C(=O)N1 (stereo partly shown) [Compound I-416]	< 50%	> 100 nM	50 to 75%	10 to 100 nM		
C[C@@H]1CNc2c(sc3ccc4nc(N5CC6(CCN(C7CCN(c8ccc9c(c8)n(C)c(=O)n9C8CCC(=O)NC8=O)CC7)CC6)C5)ccc4c23)C(=O)N1 (stereo partly shown) [Compound I-393]	< 50%	> 100 nM	< 50%	> 100 nM		
C[C@@H]1CNc2c(sc3ccc4nc(N5CCN(C6CC7(CCN(c8ccc9c(c8)n(C)c(=O)n9C8CCC(=O)NC8=O)CC7)C6)CC5)ccc4c23)C(=O)N1 (stereo partly shown) [Compound I-451]	> 75%	< 1 nM	> 75%	< 1 nM		
C[C@@H]1CNc2c(sc3ccc4nc(-c5ccc(N6CCN(CCCCCc7ccc8c(c7)n(C)c(=O)n8C7CCC(=O)NC7=O)CC6)cc5)ccc4c23)C(=O)N1 (stereo partly shown) [Compound I-174]	> 75%	< 1 nM	> 75%	< 1 nM		
C[C@@H]1CNc2c(sc3ccc4nc(-c5cncc(C6CCN(CCCCCCCCc7cccc8c7n(C)c(=O)n8C7CCC(=O)NC7=O)CC6)c5)ccc4c23)C(=O)N1 (stereo partly shown) [Compound I-103]	> 75%	< 1 nM	> 75%	1 to 10 nM		
C[C@@H]1CNc2c(sc3ccc4nc(-c5ccc(N6CCN(C(=O)COCCOCCOCCOCCc7ccc8c(c7)n(C)c(=O)n8C7CCC(=O)NC7=O)CC6)cc5)ccc4c23)C(=O)N1 (stereo partly shown) [Compound I-43]	> 75%	< 1 nM	> 75%	< 1 nM		
C[C@@H]1CN(C)c2c(sc3ccc4nc(-c5ccc(N6CCC(CN7CCN(c8cccc9c(N%10CCC(=O)NC%10=O)cncc89)CC7)CC6)cc5)ccc4c23)C(=O)N1 [Compound I-261]	< 50%	> 100 nM	> 75%	10 to 100 nM		
C[C@@H]1CNc2c(sc3ccc4nc(-c5ccc(N6CCN(C7CN(c8cccc9c8n(C)c(=O)n9C8CCC(=O)NC8=O)C7)CC6)cc5)ccc4c23)C(=O)N1 (stereo partly shown) [Compound I-262]	> 75%	< 1 nM	> 75%	< 1 nM		
